Values of other authors, collected in patent US20100104646A1, “NANOPARTICLE COMPOSITION FOR PREVENTION OF HAIR LOSS AND PROMOTION OF HAIR GROWTH” (priority 2006, published 2010).

Tested on: hair loss
Conditions: clinical studies

Compound: CC(C)(C)NC(=O)[C@H]1CC[C@H]2[C@@H]3CC[C@H]4NC(=O)C=C[C@]4(C)[C@H]3CC[C@]12C [Propecia]
- participants taking the drug in whom hair loss was prevented: 68%
- participants who enjoyed hair regrowth (participants taking the drug): 66%
